The IC50 is the midpoint of a concentration-inhibition curve.

T1 sequence (Q99814 240-350 limits assumed): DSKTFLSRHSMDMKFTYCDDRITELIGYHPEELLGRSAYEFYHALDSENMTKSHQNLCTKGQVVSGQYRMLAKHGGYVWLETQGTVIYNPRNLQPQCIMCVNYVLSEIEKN

One test addresses T1, HIF-2α HIS TAG-PASB Domain (Homo sapiens, UniProt Q99814).
T1 construct: 100 nM HIF-2α HIS TAG-PASB Domain
The test is described as follows: HIF-2α Scintillation Proximity Assay (SPA). The class given is binding. As to conditions: Scintillation Proximity Assay IC50 (nM). The method, then: The total assay volume was about 100 μL in the following configuration: 2 μL compound in 100% DMSO, 88 μL buffer with protein and probe and 10 μL of SPA beads. […] The percent inhibition was determined and IC50 values were calculated using the Dotmatics system based on the following equation: % inhibition=[(high control−sample)/(high control−low control)]×100.
`CS(=O)(=O)c1ccc(Oc2cc(F)cc(Cl)c2)c(Br)c1` [Compound 138] registered an IC50 above 1000 nM.
The same measure, in the same setting: with `O=S(=O)(c1ccc(Oc2cc(F)cc(Cl)c2)c(Br)c1)C(F)(F)F` [Compound 116] the figure was 50 to 249 nM.

The same test, now with this note: read-out: Scintillation Proximity Assay IC50.
`CS(=O)(=O)c1ccc(Oc2cc(F)cc(C#N)c2)c2c1[C@H](O)C(F)(F)[C@H]2O` [Compound 311]: the IC50 was above 1000 nM.
Turning to `OC1CCc2c(OCC(F)F)ccc(C(F)(F)F)c21` (centres unmarked) [Compound 662], the IC50 was above 1000 nM.
Still for that read-out and setting: with `CS(=O)(=O)CCCOc1ccc(S(=O)(=O)C(F)(F)F)c2c1CC(F)(F)C2O` (centres unmarked) [Compound 631] the figure was above 1000 nM; with `N#Cc1cc(F)cc(Oc2ccc(S(=O)(=O)C(F)F)c(C#N)c2Br)c1` [Compound 77], above 1000 nM; with `CCOc1ccc(C#N)c2c1CC(F)(F)[C@H]2O` [Compound 674], above 1000 nM.
As to `CNCCOc1ccc(S(=O)(=O)C(F)(F)F)c2c1CC(F)(F)C2O` (centres unmarked) [Compound 650], the half-maximal inhibitory concentration (IC50) is above 1000 nM.
Turning to `CC1(C)CCC(=O)[C@@H](c2ccc(S(=O)(=O)C(F)(F)F)c3c2CC(F)(F)[C@H]3O)C1` [Compound 546], the IC50 is above 1000 nM.
Consider `CS(=O)(=O)c1ccc(Oc2cncc(Cl)c2)c2c1[C@H](O)C(F)(F)[C@H]2F` [Compound 332], for which the IC50 is above 1000 nM.
The same measure, in the same setting: with `CS(=O)(=O)c1ccc(OC[C@H]2CC2(F)F)c2c1[C@H](O)C(F)(F)[C@@H]2F` [Compound 769] the figure was 50 to 249 nM.
Consider `CS(=O)(=O)c1ccc(Oc2cncc(F)c2)c2c1[C@H](O)C(F)(F)[C@@H]2F` [Compound 329], for which the half-inhibitory concentration (IC50) was below 50 nM.
Same read-out and setting: with `O=S(=O)(c1ccc(Oc2cc(F)cc(Cl)c2)c(CO)c1CO)C(F)F` [Compound 87] the figure was above 1000 nM; with `CC1(O)c2cc(Oc3cc(F)cc(F)c3)ccc2S(=O)(=O)C1(F)F` (centres unmarked) [Compound 425], above 1000 nM; with `N#Cc1cc(F)cc(Oc2ccc(S(=O)(=O)C(F)(F)F)c3c2CC(F)C3N)c1` (centres unmarked) [Compound 268], above 1000 nM.
The same measure, in the same setting: with `CC1(C)C=C(c2ccc(S(=O)(=O)C(F)(F)F)c3c2CC(F)(F)[C@H]3O)C(O)CC1` (some centres unmarked) [Compound 543] the figure was above 1000 nM; with `NC1c2c(ccc(Oc3cc(F)cc(F)c3)c2C(F)F)S(=O)(=O)C1F` (centres unmarked) [Compound 366], above 1000 nM.
On the same count and under the same terms, the figure for `N#Cc1cc(F)cc(Oc2ccc(S(=O)(=O)C(F)(F)F)c(Cl)c2C#N)c1` [Compound 29] is below 50 nM; for `O=S(=O)(c1ccc(-c2ccn[nH]2)c2c1[C@H](O)C(F)(F)C2)C(F)(F)F` [Compound 561] it is above 1000 nM.
Turning to `N#Cc1cc(F)cc(Oc2ccc3c(c2C(F)F)C(O)(C(F)(F)F)C(F)(F)S3(=O)=O)c1` (centres unmarked) [Compound 445], the IC50 is above 1000 nM.
As to `O=S(=O)(c1ccc(CC2CCCCC2)c2c1C(O)CC2)C(F)(F)F` (centres unmarked) [Compound 508], the IC50 was above 1000 nM.
Still for that read-out and setting: with `CCCc1ccc(S(=O)(=O)C(F)(F)F)c2c1CCC2O` (centres unmarked) [Compound 515] the figure was above 1000 nM; with `O=C1c2c(S(=O)(=O)C(F)F)ccc(Oc3ccc(F)c(Br)c3)c2CC1(F)F` [Compound 193], 250 to 1000 nM.
For `OC1c2c(I)cc(I)c(OCC(F)F)c2CC1(F)F` (centres unmarked) [Compound 666], the IC50 was above 1000 nM.
Same read-out and setting: with `N#Cc1cc(F)cc(Oc2ccc3c(c2C(F)F)C(=N)C(F)S3(=O)=O)c1` (centres unmarked) [Compound 373] the figure was above 1000 nM; with `CS(=O)(=O)c1ccc(Nc2cc(F)cc(C#N)c2)c2c1C(O)C(F)(F)C2` (centres unmarked) [Compound 502], above 1000 nM.
Same read-out and setting: with `CCS(=O)(=O)c1ccc(Oc2cc(F)cc(C#N)c2)c2c1C(O)CC2` (centres unmarked) [Compound 205] the figure was above 1000 nM.
For `Cc1c(S(C)(=O)=O)ccc(Oc2cc(F)cc(C#N)c2)c1C#N` [Compound 51], the IC50 is above 1000 nM.
`OC1c2c(-c3cn[nH]c3)ccc(OCC(F)F)c2CC1(F)F` (centres unmarked) [Compound 684]: the IC50 is above 1000 nM.
Same read-out and setting: the figure for `CN1CCCC(Oc2ccc(S(=O)(=O)C(F)(F)F)c3c2CC(F)(F)C3O)C1` (centres unmarked) [Compound 634] is above 1000 nM.
Turning to `NC(=O)Cc1ccc(S(=O)(=O)C(F)(F)F)c2c1CC(F)(F)[C@H]2O` [Compound 527], the half-inhibitory concentration (IC50) was above 1000 nM.
Still for that read-out and setting: with `CC(Oc1ccc(S(=O)(=O)C(F)(F)F)c2c1CC(F)(F)C2O)C(=O)N(C)C` (centres unmarked) [Compound 647] the figure was above 1000 nM; with `COC1Cc2c(OCC(F)F)ccc(C(F)(F)F)c2C1O` (centres unmarked) [Compound 668], above 1000 nM.
Same read-out and setting: the figure for `COCCNC1c2c(ccc(Oc3cc(F)cc(F)c3)c2Br)S(=O)(=O)C1(F)F` (centres unmarked) [Compound 379] is below 50 nM; for `N#Cc1cncc(Oc2ccc(S(=O)(=O)C(F)F)c3c2CC[C@H]3O)c1` [Compound 4] it is above 1000 nM; for `O[C@H]1c2c(C(F)(F)F)ncc(O[C@H]3C[C@H](F)C3)c2C[C@H]1F` [Compound 478] it is below 50 nM.
On the same count and under the same terms, the figure for `N#Cc1cc(F)cc(Oc2ccc(S(=N)(=O)C(F)(F)F)cc2C#N)c1` (centres unmarked) [Compound 73] is above 1000 nM; for `CC1(O)c2c(ccc(OC3CC(F)(F)C3)c2C#N)S(=O)(=O)C1(F)F` (centres unmarked) [Compound 461] it is above 1000 nM.
In the case of `CCOc1ccc2c(c1C(F)F)[C@@H](O)C(F)(F)S2(=O)=O` [Compound 438], the IC50 was above 1000 nM.
On the same count and under the same terms, the figure for `NC1CCc2c(Oc3cc(F)cc(F)c3)ccc(S(=O)(=O)C(F)F)c21` (centres unmarked) [Compound 19] is above 1000 nM; for `N#Cc1cncc(Oc2ccc(S(=O)(=O)CF)c3c2[C@H](F)C(F)(F)[C@H]3O)c1` [Compound 345] it is above 1000 nM.
Same read-out and setting: the figure for `CCOc1ccc(C(F)(F)F)c2c1CC[C@H]2O` [Compound 673] is above 1000 nM.
Still for that read-out and setting: the figure for `O=S(=O)(c1ccc(Oc2cc(Cl)ccc2F)c(Br)c1)C(F)(F)F` [Compound 170] is above 1000 nM.
On to `O=S(=O)(c1ccc(OC2CCNCC2)c2c1C(O)CC2)C(F)(F)F` (centres unmarked) [Compound 606], for which the IC50 is above 1000 nM.
The same measure, in the same setting: with `CS(=O)(=O)c1ccc(N2CCC[C@@H](O)C2)c2c1[C@H](O)C(F)(F)[C@@H]2F` [Compound 553] the figure was above 1000 nM; with `N#Cc1cc(F)cc(Oc2ccc3c(c2C(F)F)C(N)C(F)(F)S3(=O)=O)c1` (centres unmarked) [Compound 372], below 50 nM; with `O=S(=O)(c1ccc(Oc2c(F)cccc2F)c(Br)c1)C(F)(F)F` [Compound 176], above 1000 nM.
`N#Cc1cc(F)cc(Oc2ccc(S(=N)(=O)C(F)(F)F)c3c2CCC3O)c1` (centres unmarked) [Compound 259]: the IC50 is above 1000 nM.
Same read-out and setting: the figure for `CS(=O)(=O)c1ccc(Oc2cc(F)cc(Cl)c2)c2c1C(O)CC2CO` (centres unmarked) [Compound 281] is 250 to 1000 nM.
Still for that read-out and setting: with `COCCOc1ccc(S(=O)(=O)C(F)(F)F)c2c1CCC2O` (centres unmarked) [Compound 599] the figure was above 1000 nM.
The same measure, in the same setting: the figure for `Cc1c(Oc2cc(F)cc(C#N)c2)ccc(S(=O)(=O)C(F)(F)F)c1Br` [Compound 141] is 50 to 249 nM; for `NCC1(O)CCc2c(OCC(F)F)ccc(C(F)(F)F)c21` (centres unmarked) [Compound 705] it is above 1000 nM; for `CC(Oc1ccc(S(=O)(=O)C(F)(F)F)c2c1CC(F)(F)C2O)C(N)=O` (centres unmarked) [Compound 649] it is above 1000 nM.
Regarding `CC1(O)c2c(ccc(OCc3ccccc3)c2C#N)S(=O)(=O)C1(F)F` (centres unmarked) [Compound 459], the IC50 is above 1000 nM.
On the same count and under the same terms, with `COc1ccc(S(=O)(=O)C(F)(F)F)c2c1CC(F)(F)C2O` (centres unmarked) [Compound 590] the figure was above 1000 nM; with `Cc1c(Oc2cc(F)cc(C#N)c2)ccc(S(=O)(=O)C(F)(F)F)c1/C=C/c1nnco1` [Compound 150], above 1000 nM; with `O=S(=O)(c1ccc(OC2CCOC2)c2c1C(O)CC2)C(F)(F)F` (centres unmarked) [Compound 596], above 1000 nM.
On to `CC(=O)NCCOc1ccc(S(=O)(=O)C(F)(F)F)c2c1CC(F)(F)C2O` (centres unmarked) [Compound 636], for which the IC50 was above 1000 nM.
Still for that read-out and setting: the figure for `O=S(=O)(c1ccc(Oc2cccc(C(F)(F)F)c2)c(Br)c1CO)C(F)F` [Compound 89] is above 1000 nM.
Still for that read-out and setting: the figure for `N#Cc1cc(F)cc(Oc2ccc(S(=O)(=O)C(F)(F)F)c3c2CC(F)C3N)c1` (centres unmarked) [Compound 265] is 50 to 249 nM.
Same read-out and setting: the figure for `O=C1CC[C@@H](Oc2ccc(S(=O)(=O)C(F)(F)F)c3c2CC(F)(F)[C@H]3O)CN1` [Compound 720] is above 1000 nM; for `CS(=O)(=O)c1ccc(O[C@H]2C[C@H](O)C2)c2c1[C@H](O)C(F)(F)[C@@H]2F` [Compound 738] it is above 1000 nM; for `N#Cc1cc(F)cc(Oc2ccc3c(c2Br)[C@@H](O)C(F)(F)S3(=O)=O)c1` [Compound 347] it is below 50 nM.
As for `O=S(=O)(c1ccc(C(O)CO)c2c1[C@H](O)C(F)(F)C2)C(F)(F)F` (some centres unmarked) [Compound 533], the IC50 was above 1000 nM.
Same read-out and setting: the figure for `N=S1(=O)CC(O)c2c1ccc(Oc1cc(F)cc(F)c1)c2C(F)F` (centres unmarked) [Compound 396] is above 1000 nM.
The same measure, in the same setting: with `O=S(=O)(c1ccc(O[C@H]2CCCc3cn[nH]c32)c2c1[C@H](O)C(F)(F)C2)C(F)(F)F` [Compound 732] the figure was above 1000 nM; with `O=S(=O)(c1ccc(NCc2cccs2)c2c1[C@H](O)C(F)(F)C2)C(F)F` [Compound 528], above 1000 nM.
Same read-out and setting: with `CS(=O)(=O)c1ccc(Oc2cncc(F)c2)c2c1[C@H](O)C(F)(F)[C@H]2F` [Compound 330] the figure was above 1000 nM; with `O=S(=O)(c1ccc(Oc2ccc3[nH]ncc3c2)c2c1C(O)C(F)(F)C2)C(F)(F)F` (centres unmarked) [Compound 238], above 1000 nM.
Turning to `O=S1(=O)CC(O)c2c1ccc(Oc1cc(F)cc(F)c1)c2Br` (centres unmarked) [Compound 418], the IC50 was above 1000 nM.
On the same count and under the same terms, with `CNC(=O)COc1ccc(S(=O)(=O)C(F)(F)F)c2c1CC(F)(F)C2O` (centres unmarked) [Compound 638] the figure was above 1000 nM; with `CS(=O)(=O)c1ccc(Oc2cc(F)cc(C#N)c2)c2c1C(O)C1(CC1)C2` (centres unmarked) [Compound 217], above 1000 nM; with `CC1(C)CC[C@H](O)[C@H](c2ccc(S(=O)(=O)C(F)(F)F)c3c2CC(F)(F)[C@H]3O)C1` [Compound 548], above 1000 nM.
Still for that read-out and setting: with `CS(=O)(=NC#N)c1ccc(Oc2cc(F)cc(C#N)c2)c2c1[C@H](O)C(F)(F)[C@H]2F` (some centres unmarked) [Compound 318] the figure was above 1000 nM.

The values are drawn from patent publication US10278942B2 (PELOTON THERAPEUTICS, INC., priority 2015, dated 2019).
